The test system of assay [1] is LNCaP prostate cancer cells. Nature of the assay: Measurement of cellular proliferation, LNCaP cells. It counts as cell-based, human. The protocol: (§1) Measurement of cellular proliferation: LNCaP cells at 2.5×10^4/well or PC3 cells at 5×10^4/well, both in a final volume of 100 μl, were plated in triplicate in standard flat bottom 96 well tissue culture plates in the presence of drug or vehicle (DMSO). Unless otherwise indicated, cells were grown for 48 hours at 37° C. in a CO2 incubator. Relative cell growth was determined with the CellTiter 96 aqueous cell proliferation assay (Promega, Madison, Wis.) as described by the manufacturer using an automated plate reader. Results were calculated in a blinded fashion and are means of triplicate determinations.
(§2) For the 48 hour proliferation, cells were cultured with calcium channel antagonists or without calcium channel antagonists. The IC50 values of the calcium channel antagonists were determined.
(§3) Using the measurement cell proliferation assay described hereinabove, the cell lines Jurkat, LNCap (prostate cancer cell), PC-31 (prostate cancer cell), DU145 (prostate cancer cell), MDA-468 (breast cancer cell), MDA-36 (Breast cancer cell), MCF-7 (breast cancer cell), MIA PaCa-2 (pancreatic cancer cell), Hep G2 (liver cancer cell), A549 (non-small cell lung cancer cells), NCI H460 (non-small cell lung cancer cells), HT-29 (colon cancer cell), HCT-116 (colon cancer cell) and SK OV-3 (ovarian cancer cell) were cultured in the presence of TH-1177, TH-1205, TH-1201, TH-2109, TH-2029, TH-2043, TN-2085 and TH-2279.

For assay [2], the system named is PC3 prostate cancer cells. As to the kind of experiment: Measurement of cellular proliferation, PC3 cells. It counts as cell-based, human. The protocol:
as §1, §2, §3

The subject of assay [3] is A549 (non-small cell lung cancer cells). Nature of the assay: Measurement of cellular proliferation, A549 cells. Format: cell-based. The following applies: A549, 48 hours. The protocol:
as §1, §2, §3

Assay [4] relates to NCI H460 (non-small cell lung cancer cells). Nature of the assay: Measurement of cellular proliferation, NCI H460 cells. Format: cell-based. The conditions noted are these: NCI H460, 48 hours; read-out: PROLIFERATION IC50 NCl H460. The protocol: as §1, §2, §3
A further assay concerns PC3 cells. Nature of the assay: Survival of SCID mice inoculated with PC3 cells. It counts as in vivo. The protocol: Animal Studies: All protocols were approved by the Animal Care Committee of the University of Virginia. SCID mice were housed in a barrier isolation facility of the University of Virginia Department of Comparative Medicine and all personnel observed sterile techniques when entering the facility and handling animals. TH-1177 was dissolved in ethanol and diluted 10-fold in sterile phosphate buffered saline (PBS) immediately prior to each day's injection. Injection volumes of 0.5 ml per animal were used. Vehicle consisted of PBS diluted ethanol. PC3 cells for injection were prepared by washing in sterile PBS three times prior to suspension to 2×10^6 per ml. Each animal received a daily IP injection of vehicle or drug beginning on day 1.
Statistical methods: In vivo survival data were analyzed with Prism 2.01 (GraphPad Software, San Diego, Calif.). The results of the Kaplan-Meier analysis are presented as one-tailed probabilities because there was no reasonable expectation that drug treatment would cause the mice to succumb more rapidly to the implanted cancer than would control animals.
TH-1177 slowed prostate cancer progression in vivo. […] One day later, daily IP injections of TH-1177 or vehicle alone were begun. TH1177 was administered at doses or either 3 mg/kg or 10 mg/kg. […]

In assay [5] the target is T1, α1G subunit of a calcium channel (Homo sapiens, UniProt O43497).
T1 construct: expressed in transfected cells
T1 sequence (O43497 1-2171 isoform O43497-5): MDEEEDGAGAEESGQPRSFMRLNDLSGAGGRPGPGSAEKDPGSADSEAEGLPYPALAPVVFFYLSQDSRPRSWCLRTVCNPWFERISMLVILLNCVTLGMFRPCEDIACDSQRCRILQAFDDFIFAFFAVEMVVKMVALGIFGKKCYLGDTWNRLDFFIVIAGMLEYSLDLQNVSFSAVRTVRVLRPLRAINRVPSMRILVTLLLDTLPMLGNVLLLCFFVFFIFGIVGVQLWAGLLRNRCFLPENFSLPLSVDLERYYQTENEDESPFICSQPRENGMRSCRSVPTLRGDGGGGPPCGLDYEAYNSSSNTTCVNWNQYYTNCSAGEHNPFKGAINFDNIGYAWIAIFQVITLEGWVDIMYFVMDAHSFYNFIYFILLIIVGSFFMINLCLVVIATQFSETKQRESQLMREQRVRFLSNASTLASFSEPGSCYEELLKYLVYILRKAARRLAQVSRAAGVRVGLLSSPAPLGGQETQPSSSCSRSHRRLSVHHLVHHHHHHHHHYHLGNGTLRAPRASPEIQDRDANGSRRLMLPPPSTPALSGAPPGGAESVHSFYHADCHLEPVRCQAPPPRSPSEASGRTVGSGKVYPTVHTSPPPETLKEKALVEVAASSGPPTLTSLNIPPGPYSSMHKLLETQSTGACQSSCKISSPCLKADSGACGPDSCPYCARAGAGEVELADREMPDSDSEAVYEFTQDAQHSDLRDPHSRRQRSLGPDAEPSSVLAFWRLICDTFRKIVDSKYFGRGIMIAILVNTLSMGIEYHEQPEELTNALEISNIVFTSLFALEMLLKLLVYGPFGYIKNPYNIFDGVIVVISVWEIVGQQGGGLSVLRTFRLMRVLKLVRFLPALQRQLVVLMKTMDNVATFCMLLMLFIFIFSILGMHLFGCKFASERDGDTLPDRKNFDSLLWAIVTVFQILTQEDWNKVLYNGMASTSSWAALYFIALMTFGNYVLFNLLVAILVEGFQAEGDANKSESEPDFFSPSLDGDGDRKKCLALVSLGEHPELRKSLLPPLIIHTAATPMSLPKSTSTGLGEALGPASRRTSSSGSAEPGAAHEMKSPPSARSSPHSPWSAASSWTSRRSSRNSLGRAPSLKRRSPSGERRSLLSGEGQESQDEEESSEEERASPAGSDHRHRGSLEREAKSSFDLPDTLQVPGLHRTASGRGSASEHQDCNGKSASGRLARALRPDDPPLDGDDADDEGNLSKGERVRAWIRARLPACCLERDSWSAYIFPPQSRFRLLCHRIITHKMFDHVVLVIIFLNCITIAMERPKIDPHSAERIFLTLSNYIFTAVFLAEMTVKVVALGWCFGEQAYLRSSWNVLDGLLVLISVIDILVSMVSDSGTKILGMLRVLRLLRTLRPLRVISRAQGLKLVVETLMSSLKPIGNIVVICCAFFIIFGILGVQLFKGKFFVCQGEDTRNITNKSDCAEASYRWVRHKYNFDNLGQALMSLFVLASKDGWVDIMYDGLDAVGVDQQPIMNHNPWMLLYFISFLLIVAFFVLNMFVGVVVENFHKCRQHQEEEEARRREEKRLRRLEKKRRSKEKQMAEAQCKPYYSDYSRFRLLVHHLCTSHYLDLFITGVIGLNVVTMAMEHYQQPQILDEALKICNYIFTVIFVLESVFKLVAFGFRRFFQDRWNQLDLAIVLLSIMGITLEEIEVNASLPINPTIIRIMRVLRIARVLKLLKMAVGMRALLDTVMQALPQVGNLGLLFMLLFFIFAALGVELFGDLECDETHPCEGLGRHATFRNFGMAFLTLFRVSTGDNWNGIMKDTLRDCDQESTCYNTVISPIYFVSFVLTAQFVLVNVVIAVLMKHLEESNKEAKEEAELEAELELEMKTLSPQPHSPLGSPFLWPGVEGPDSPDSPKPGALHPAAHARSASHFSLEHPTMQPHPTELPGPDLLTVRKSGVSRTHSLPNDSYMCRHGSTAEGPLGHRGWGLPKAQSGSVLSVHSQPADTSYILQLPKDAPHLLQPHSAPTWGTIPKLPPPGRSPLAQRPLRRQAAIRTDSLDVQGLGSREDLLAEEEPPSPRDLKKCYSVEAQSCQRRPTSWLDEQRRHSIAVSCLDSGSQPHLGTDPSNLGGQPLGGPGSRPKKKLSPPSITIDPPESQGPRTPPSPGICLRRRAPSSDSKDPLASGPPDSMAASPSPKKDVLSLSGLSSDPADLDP
As to the kind of experiment: Whole cell current recording, Xenopus oocytes transfected with α1G subunit. Format: cell-based. The protocol: The procedure of Example 9 was repeated except the cells were transfected with 2 μg of α1G subunit prepared in accordance with the procedure described in Cribbs, et al., FEBS Letters, 66, 54-58 (2000). Here the cells were depolarized using the depolarizing medium of Example 9. When the current reached the maximum level, then 10 μm pH 1177 was added to the medium and the change in current was observed. The current was measured at about zero pA. When the current remained constant, the TH-1177 was washed out, in accordance with the procedure in Example 9 and the change in the current value was again recorded.

Like-named read-outs stand apart in the source and are kept apart here.

For the compound `COc1ccc(CCN2CCC[C@H]2COC(c2ccccc2)c2ccc(Cl)cc2)cc1` (some centres unmarked) [TH-1177], the IC50 worked out at 4 µM in assay [1] (FIG. 6A, 48 hours, read-out: IC50 for inhibition of LNCaP proliferation); 14 µM in assay [2] (FIG. 6B, 48 hours, read-out: IC50 for inhibition of PC3 proliferation); 15 µM in assay [2] (PC-3, 48 hours, read-out: PROLIFERATION IC50 PC-3); 71 µM in assay [3]; 15 µM in assay [4]. Further, the “Cell growth in presence of compound” value in assay [1] (LNCaP, 1 μM or 3 μM, FIG. 7, growth resumed after removal) is listed as “growth was stopped”. Also, in assay [1] (LNCaP, FIG. 8), the “Effect of prior treatment on response to second exposure” value is recorded as “no effect”. For the same compound, the Life span increase is given as 34% in the assay with PC3 cells (3 mg/kg/d daily IP, p=0.047) and 38% in the assay with PC3 cells (10 mg/kg/d daily IP, p=0.0044). Besides, in assay [5] (10 μm added at maximum current), the “Current in depolarized α1G-transfected cells” value is “about zero”. In assay [5] (α1G-transfected Xenopus oocytes, restored on washout), the “Ability of calcium to cross the cell membrane” value is given as “completely inhibits”.

The values are drawn from patent US6946475B1, “Anticancer calcium channel blockers” (University of Virginia Patent Foundation, priority 1999, dated 2005).
